In assay [1] the target is Casein kinase II subunit alpha' (Homo sapiens, UniProt P19784). The experiment in a line: Inhibition of GST-tagged full-length purified human CK2a2 using RRRDDDSDDD substrate incubated for 120 mins in presence of [33P]ATP by scintillation counting based biochemical assay.
Assay [2] addresses Serine/threonine-protein kinase pim-1 (Homo sapiens, UniProt P11309). The experiment in a line: Inhibition of human full-length 6xHis-tagged PIM1 expressed in insect cells using S6K1Rsk2 peptide-2 substrate in presence of [33P]ATP incubated for 120 mins by scintillation counting based biochemical assay.
For assay [3], the target named is T1, PAS domain-containing serine/threonine-protein kinase (Homo sapiens, UniProt Q96RG2). The experiment in a line: Inhibition of N-terminal GST-tagged human recombinant PASK kinase domain (879 to 1323 residues) expressed in insect cells using MBP protein substrate incubated for 120 mins in presence of [33P]ATP by scintillation counting based radiochemical assay.

Assay [4] addresses T1, PAS domain-containing serine/threonine-protein kinase. The experiment in a line: Inhibition of human recombinant PASK using Ulight-peptide substrate incubated for 2 hrs by TR-FRET assay.

Data on three compounds can be found in ChEMBL document CHEMBL3714731, “Heterocyclic compounds for the inhibition of pask” (2014).

T1 sequence (Q96RG2 whole entry, the tested form may be a part): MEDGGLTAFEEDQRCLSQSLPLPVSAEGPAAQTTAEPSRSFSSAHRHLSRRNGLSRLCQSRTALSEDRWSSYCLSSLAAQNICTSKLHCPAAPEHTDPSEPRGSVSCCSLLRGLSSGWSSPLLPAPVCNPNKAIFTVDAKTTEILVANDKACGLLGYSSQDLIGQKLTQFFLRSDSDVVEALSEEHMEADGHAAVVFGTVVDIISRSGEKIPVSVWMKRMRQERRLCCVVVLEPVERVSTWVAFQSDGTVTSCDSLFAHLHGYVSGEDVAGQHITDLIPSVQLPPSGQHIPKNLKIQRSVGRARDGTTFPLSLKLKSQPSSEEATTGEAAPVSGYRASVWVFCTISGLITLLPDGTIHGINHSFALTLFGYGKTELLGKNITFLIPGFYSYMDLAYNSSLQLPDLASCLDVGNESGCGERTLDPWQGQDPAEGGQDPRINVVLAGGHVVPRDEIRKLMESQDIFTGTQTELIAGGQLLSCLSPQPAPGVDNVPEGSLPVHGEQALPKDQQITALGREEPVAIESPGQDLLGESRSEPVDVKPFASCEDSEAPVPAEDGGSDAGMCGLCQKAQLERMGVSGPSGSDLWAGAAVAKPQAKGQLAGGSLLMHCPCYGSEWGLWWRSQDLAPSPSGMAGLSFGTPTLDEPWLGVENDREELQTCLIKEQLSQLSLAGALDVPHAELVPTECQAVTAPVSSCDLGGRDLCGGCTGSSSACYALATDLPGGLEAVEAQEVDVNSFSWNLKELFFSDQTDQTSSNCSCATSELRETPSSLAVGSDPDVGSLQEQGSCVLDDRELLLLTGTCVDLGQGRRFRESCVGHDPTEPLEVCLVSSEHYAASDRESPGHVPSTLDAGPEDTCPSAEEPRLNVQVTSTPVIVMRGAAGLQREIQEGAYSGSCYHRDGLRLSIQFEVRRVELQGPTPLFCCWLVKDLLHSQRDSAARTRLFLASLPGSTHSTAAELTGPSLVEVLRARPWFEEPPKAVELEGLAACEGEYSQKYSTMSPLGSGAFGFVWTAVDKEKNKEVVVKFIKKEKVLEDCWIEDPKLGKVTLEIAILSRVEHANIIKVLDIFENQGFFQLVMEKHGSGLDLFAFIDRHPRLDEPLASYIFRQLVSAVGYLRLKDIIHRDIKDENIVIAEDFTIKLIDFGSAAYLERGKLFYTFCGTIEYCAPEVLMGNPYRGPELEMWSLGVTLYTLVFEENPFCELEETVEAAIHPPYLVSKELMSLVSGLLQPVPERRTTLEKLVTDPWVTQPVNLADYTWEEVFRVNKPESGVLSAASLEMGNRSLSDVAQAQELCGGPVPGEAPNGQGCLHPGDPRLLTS
Sequence of Serine/threonine-protein kinase pim-1 (P11309 whole entry, the tested form may be a part): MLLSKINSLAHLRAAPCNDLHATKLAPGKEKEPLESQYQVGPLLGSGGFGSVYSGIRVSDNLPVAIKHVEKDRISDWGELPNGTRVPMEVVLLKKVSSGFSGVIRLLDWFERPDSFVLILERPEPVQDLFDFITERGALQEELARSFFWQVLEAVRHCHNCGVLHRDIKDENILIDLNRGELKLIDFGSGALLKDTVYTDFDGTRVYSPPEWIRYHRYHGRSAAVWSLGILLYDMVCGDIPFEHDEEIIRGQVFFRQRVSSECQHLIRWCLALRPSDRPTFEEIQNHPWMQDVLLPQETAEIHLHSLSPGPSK
Sequence of Casein kinase II subunit alpha' (P19784 whole entry): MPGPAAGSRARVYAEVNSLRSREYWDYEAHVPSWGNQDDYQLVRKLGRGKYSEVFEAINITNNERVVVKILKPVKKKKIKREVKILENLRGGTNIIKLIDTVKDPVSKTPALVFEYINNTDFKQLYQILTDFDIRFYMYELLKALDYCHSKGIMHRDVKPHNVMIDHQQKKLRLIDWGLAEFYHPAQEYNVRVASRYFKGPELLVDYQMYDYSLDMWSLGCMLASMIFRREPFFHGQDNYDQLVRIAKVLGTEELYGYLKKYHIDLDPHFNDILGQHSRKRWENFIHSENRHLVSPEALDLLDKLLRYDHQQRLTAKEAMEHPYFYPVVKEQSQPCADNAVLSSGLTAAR

For orientation: IC50 means the point on the concentration scale where inhibition reaches its midpoint. Turning to `COc1cc(-c2cc(=O)n3ncc(CC#N)c3[nH]2)ccc1Cl`, the IC50 in assay [1], in assay [2] and in assay [3] was no more than 10 µM each time.
For `CCc1cnc(-c2cnn3c(=O)cc(-c4ccc5c(cnn5CC)c4)[nH]c23)o1`, the IC50 in assay [1], in assay [2] and in assay [3] was no more than 10 µM each time.
For the compound `Cc1coc(-c2cnn3c(=O)cc(-c4ccc5[nH]ncc5c4)[nH]c23)n1`, the IC50 in assay [4] was no more than 10 µM.
